Source: PMC5078040 (Oncotarget, 2016)

Assays:
[1] = molecular target: T1, ABL1(Q252H)-nonphosphorylated (Homo sapiens, UniProt P00519, Q252H); assay: KinomeScan; format: binding; details: 1uM
T1 construct: purchased DiscoveRx KINOMEscan

[2] = molecular target: T2, ACVRL1 (Homo sapiens, UniProt P37023); assay: KinomeScan; format: binding; details: 1uM
T2 construct: purchased DiscoveRx KINOMEscan

[3] = molecular target: T3, BRSK2 (Homo sapiens, UniProt Q8IWQ3); assay: KinomeScan; format: binding; details: 1uM
T3 construct: purchased DiscoveRx KINOMEscan

[4] = molecular target: T4, CAMKK1 (Homo sapiens, UniProt Q8N5S9); assay: KinomeScan; format: binding; details: 1uM
T4 construct: purchased DiscoveRx KINOMEscan

[5] = molecular target: T5, CDC2L5 (Homo sapiens, UniProt Q14004); assay: KinomeScan; format: binding; details: 1uM
T5 construct: purchased DiscoveRx KINOMEscan

[6] = molecular target: T6, CHEK2 (Homo sapiens, UniProt O96017); assay: KinomeScan; format: binding; details: 1uM
T6 construct: purchased DiscoveRx KINOMEscan

[7] = molecular target: T7, CIT (Homo sapiens, UniProt O14578); assay: KinomeScan; format: binding; details: 1uM
T7 construct: purchased DiscoveRx KINOMEscan

[8] = molecular target: T8, EGFR (Homo sapiens, UniProt P00533); assay: KinomeScan; format: binding; details: 1uM
T8 construct: purchased DiscoveRx KINOMEscan

[9] = molecular target: T9, EPHA4 (Homo sapiens, UniProt P54764); assay: KinomeScan; format: binding; details: 1uM
T9 construct: purchased DiscoveRx KINOMEscan

[10] = molecular target: T10, EPHA6 (Homo sapiens, UniProt Q9UF33); assay: KinomeScan; format: binding; details: 1uM
T10 construct: purchased DiscoveRx KINOMEscan

[11] = molecular target: T11, HIPK1 (Homo sapiens, UniProt Q86Z02); assay: KinomeScan; format: binding; details: 1uM
T11 construct: purchased DiscoveRx KINOMEscan

[12] = molecular target: T12, HIPK4 (Homo sapiens, UniProt Q8NE63); assay: KinomeScan; format: binding; details: 1uM
T12 construct: purchased DiscoveRx KINOMEscan

[13] = molecular target: T13, IKK-beta (Homo sapiens, UniProt O14920); assay: KinomeScan; format: binding; details: 1uM
T13 construct: purchased DiscoveRx KINOMEscan

[14] = molecular target: T14, LIMK2 (Homo sapiens, UniProt P53671); assay: KinomeScan; format: binding; details: 1uM
T14 construct: purchased DiscoveRx KINOMEscan

[15] = molecular target: T15, LOK (Homo sapiens, UniProt O94804); assay: KinomeScan; format: binding; details: 1uM
T15 construct: purchased DiscoveRx KINOMEscan

[16] = molecular target: T16, MEK1 (Homo sapiens, UniProt Q02750); assay: KinomeScan; format: binding; details: 1uM
T16 construct: purchased DiscoveRx KINOMEscan

[17] = molecular target: T17, MINK (Homo sapiens, UniProt Q8N4C8); assay: KinomeScan; format: binding; details: 1uM
T17 construct: purchased DiscoveRx KINOMEscan
T17 sequence (Q8N4C8 whole entry): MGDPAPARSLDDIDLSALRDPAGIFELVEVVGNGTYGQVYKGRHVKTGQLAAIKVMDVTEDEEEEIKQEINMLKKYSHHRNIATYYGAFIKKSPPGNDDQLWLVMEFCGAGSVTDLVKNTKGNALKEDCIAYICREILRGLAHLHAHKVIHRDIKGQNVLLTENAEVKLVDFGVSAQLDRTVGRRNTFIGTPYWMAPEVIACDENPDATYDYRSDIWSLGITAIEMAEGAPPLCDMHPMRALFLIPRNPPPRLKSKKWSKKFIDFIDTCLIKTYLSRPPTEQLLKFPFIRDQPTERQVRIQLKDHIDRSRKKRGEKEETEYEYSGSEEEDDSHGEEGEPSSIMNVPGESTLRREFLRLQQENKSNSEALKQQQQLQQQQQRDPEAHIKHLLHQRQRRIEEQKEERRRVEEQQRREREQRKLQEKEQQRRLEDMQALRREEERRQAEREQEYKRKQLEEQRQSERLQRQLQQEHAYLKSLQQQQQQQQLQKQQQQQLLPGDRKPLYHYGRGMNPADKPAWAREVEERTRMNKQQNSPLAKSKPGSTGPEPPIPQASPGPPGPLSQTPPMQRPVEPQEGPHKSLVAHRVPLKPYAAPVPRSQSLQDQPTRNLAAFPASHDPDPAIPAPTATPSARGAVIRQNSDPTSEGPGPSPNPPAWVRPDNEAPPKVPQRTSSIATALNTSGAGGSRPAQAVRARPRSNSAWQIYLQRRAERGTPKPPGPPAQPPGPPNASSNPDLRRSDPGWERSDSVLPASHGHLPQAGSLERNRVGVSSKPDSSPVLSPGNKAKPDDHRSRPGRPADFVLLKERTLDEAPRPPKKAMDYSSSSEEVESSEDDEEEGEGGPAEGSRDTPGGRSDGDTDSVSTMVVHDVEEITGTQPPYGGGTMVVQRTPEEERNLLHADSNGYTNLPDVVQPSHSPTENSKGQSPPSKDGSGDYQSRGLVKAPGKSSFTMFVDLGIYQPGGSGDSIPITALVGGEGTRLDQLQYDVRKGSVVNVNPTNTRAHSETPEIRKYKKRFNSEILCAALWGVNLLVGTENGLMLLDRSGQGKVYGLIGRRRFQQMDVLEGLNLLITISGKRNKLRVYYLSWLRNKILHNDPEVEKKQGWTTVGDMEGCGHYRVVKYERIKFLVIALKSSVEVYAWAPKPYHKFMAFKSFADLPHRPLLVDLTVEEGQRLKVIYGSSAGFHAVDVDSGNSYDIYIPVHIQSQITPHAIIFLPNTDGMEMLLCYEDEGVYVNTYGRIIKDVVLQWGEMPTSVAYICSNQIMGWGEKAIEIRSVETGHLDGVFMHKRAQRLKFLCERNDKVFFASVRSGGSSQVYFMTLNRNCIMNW

[18] = molecular target: T18, MRCKA (Homo sapiens, UniProt Q5VT25); assay: KinomeScan; format: binding; details: 1uM
T18 construct: purchased DiscoveRx KINOMEscan

[19] = molecular target: T19, MST1R (Homo sapiens, UniProt Q04912); assay: KinomeScan; format: binding; details: 1uM
T19 construct: purchased DiscoveRx KINOMEscan
T19 sequence (Q04912 25-1400): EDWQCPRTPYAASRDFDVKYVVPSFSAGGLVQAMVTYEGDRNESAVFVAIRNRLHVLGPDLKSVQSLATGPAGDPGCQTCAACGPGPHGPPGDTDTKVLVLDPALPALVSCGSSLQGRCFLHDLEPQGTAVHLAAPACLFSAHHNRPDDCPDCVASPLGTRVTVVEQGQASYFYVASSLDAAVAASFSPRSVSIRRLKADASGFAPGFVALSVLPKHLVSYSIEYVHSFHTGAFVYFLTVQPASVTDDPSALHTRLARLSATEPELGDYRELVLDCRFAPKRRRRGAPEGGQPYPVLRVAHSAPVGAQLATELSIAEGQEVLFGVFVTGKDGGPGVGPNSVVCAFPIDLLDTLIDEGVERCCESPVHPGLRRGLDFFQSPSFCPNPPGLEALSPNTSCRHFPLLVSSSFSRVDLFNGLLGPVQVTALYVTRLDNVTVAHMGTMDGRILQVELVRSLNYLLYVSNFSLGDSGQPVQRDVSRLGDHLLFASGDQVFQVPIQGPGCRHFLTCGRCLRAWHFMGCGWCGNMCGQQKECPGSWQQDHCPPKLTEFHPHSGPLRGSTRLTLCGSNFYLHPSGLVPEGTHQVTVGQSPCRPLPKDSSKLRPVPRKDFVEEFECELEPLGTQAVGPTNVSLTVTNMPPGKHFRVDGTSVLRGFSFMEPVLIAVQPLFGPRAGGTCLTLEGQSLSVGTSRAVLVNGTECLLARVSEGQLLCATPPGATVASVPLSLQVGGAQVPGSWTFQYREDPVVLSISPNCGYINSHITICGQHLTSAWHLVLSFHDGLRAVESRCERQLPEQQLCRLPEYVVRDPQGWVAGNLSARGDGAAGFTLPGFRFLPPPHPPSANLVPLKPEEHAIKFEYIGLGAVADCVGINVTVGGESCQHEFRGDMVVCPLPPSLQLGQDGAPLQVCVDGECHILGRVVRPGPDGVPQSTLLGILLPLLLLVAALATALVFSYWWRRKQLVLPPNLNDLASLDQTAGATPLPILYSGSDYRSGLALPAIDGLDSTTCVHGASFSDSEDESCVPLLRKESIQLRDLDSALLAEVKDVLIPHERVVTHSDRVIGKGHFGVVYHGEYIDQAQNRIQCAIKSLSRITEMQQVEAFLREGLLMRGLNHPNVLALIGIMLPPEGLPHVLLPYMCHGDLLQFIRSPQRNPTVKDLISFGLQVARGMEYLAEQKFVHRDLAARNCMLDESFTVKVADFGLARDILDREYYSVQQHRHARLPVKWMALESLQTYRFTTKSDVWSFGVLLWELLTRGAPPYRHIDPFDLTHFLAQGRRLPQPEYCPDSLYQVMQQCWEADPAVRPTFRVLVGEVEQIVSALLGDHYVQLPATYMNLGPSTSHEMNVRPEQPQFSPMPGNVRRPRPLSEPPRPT

[20] = molecular target: T20, MST2 (Homo sapiens, UniProt Q13188); assay: KinomeScan; format: binding; details: 1uM
T20 construct: purchased DiscoveRx KINOMEscan

[21] = molecular target: T21, p38-alpha (Homo sapiens, UniProt Q16539); assay: KinomeScan; format: binding; details: 1uM
T21 construct: purchased DiscoveRx KINOMEscan

[22] = molecular target: T22, PDGFRB (Homo sapiens, UniProt P09619); assay: KinomeScan; format: binding; details: 1uM
T22 construct: purchased DiscoveRx KINOMEscan
T22 sequence (P09619 33-1106): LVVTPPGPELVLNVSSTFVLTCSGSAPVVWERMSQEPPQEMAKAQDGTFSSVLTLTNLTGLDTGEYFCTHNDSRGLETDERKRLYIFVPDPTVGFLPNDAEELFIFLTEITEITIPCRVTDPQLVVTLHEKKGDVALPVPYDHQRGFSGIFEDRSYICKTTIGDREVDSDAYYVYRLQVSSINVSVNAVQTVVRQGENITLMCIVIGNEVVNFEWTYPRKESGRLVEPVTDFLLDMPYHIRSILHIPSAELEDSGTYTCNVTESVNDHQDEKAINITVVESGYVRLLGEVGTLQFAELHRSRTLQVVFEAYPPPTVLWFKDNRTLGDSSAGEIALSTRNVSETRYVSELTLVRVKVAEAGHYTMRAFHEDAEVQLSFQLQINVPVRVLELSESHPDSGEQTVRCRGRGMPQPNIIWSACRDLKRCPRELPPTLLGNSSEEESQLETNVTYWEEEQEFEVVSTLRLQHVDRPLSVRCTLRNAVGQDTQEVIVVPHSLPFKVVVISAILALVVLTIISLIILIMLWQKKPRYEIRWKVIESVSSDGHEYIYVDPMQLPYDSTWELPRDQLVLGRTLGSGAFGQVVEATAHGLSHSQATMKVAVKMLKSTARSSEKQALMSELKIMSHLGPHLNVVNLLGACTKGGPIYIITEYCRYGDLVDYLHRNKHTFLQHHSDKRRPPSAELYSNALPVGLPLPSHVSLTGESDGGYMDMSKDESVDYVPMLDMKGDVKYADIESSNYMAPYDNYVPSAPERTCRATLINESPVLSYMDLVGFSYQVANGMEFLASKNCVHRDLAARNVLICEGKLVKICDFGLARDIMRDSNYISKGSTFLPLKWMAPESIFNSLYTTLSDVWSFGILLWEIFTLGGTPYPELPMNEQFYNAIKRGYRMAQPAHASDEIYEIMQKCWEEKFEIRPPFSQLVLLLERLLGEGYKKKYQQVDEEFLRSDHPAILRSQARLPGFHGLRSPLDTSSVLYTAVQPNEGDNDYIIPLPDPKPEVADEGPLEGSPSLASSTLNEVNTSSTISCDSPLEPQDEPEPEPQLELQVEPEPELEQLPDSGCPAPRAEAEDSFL

[23] = molecular target: T23, PIK3C2B (Homo sapiens, UniProt O00750); assay: KinomeScan; format: binding; details: 1uM
T23 construct: purchased Invitrogen

[24] = molecular target: T24, PKN1 (Homo sapiens, UniProt Q16512); assay: KinomeScan; format: binding; details: 1uM
T24 construct: purchased DiscoveRx KINOMEscan

[25] = molecular target: T25, PKN2 (Homo sapiens, UniProt Q16513); assay: KinomeScan; format: binding; details: 1uM
T25 construct: purchased DiscoveRx KINOMEscan

[26] = molecular target: T26, PRP4 (Homo sapiens, UniProt Q13523); assay: KinomeScan; format: binding; details: 1uM
T26 construct: purchased DiscoveRx KINOMEscan
T26 sequence (Q13523 whole entry): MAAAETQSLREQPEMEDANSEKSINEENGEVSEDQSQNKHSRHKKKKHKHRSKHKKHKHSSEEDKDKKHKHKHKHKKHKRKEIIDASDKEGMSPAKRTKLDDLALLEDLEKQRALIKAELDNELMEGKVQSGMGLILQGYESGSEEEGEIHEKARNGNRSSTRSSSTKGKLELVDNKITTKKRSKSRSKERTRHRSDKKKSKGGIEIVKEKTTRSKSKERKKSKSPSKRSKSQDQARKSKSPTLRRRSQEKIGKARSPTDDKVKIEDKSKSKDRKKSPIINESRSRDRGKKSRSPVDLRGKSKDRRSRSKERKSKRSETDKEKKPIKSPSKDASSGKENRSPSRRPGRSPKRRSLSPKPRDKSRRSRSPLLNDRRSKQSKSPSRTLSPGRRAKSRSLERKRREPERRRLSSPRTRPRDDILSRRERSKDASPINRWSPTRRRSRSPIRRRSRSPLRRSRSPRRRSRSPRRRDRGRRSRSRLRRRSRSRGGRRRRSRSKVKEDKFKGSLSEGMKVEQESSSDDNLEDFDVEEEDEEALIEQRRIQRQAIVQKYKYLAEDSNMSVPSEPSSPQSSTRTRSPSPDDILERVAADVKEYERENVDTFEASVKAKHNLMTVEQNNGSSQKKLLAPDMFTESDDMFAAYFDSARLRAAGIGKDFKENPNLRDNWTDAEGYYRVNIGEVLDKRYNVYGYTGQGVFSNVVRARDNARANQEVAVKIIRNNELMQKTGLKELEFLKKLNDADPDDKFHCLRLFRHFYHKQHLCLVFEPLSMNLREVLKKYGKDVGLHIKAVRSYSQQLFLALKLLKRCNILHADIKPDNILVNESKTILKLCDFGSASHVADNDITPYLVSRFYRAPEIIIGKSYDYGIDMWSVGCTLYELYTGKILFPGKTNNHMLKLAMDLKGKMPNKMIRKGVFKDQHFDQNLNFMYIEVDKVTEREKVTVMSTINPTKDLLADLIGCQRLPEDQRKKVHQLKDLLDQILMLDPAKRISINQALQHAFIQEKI

[27] = molecular target: T27, STK35 (Homo sapiens, UniProt Q8TDR2); assay: KinomeScan; format: binding; details: 1uM
T27 construct: purchased DiscoveRx KINOMEscan

[28] = molecular target: T28, WNK3 (Homo sapiens, UniProt Q9BYP7); assay: KinomeScan; format: binding; details: 1uM
T28 construct: purchased DiscoveRx KINOMEscan

[29] = system: AMO-1; assay: Anti-proliferative assay; format: cell-based; details: Homo sapiens, AMO1; AMO-1, MM; 72 hours, CellTiter-Glo
Procedure: (§1) Cells were grown in 96-well culture plates (3000-4000/well). […] Cell proliferation was determined after treatment with compounds for 72 hours. Cell viability was measured using the CellTiter–Glo Assay Kit (Promega, USA), according to the manufacturer's instructions, and luminescence was measured in a multi-label reader (Envision, PerkinElmer, USA). Data were normalized to control groups (DMSO) and represented by the mean of three independent measurements with standard error <20%. GI50 values were calculated using Prism 5.0 (GraphPad Software, San Diego, CA).

[30] = system: HL-60; assay: Anti-proliferative assay; format: cell-based; details: Homo sapiens; HL-60, AML-M2; 72 hours, CellTiter-Glo
Procedure: as §1

[31] = system: HT; assay: Anti-proliferative assay; format: cell-based; details: Homo sapiens, B-cell lymphoma, 72 hours, CellTiter-Glo
Procedure: as §1

[32] = system: JVM-2; assay: Anti-proliferative assay; format: cell-based; details: Homo sapiens; JVM-2, Mantle cell lymphoma; 72 hours, CellTiter-Glo
Procedure: as §1

[33] = system: MEC-1; assay: Anti-proliferative assay; format: cell-based; details: Homo sapiens, MEC1; MEC-1, CLL; 72 hours, CellTiter-Glo
Procedure: as §1

[34] = system: MOLM-13; assay: Anti-proliferative assay; format: cell-based; details: Homo sapiens; MOLM-13, AML-M5; 72 hours, CellTiter-Glo
Procedure: as §1

[35] = system: MOLM-14; assay: Anti-proliferative assay; format: cell-based; details: Homo sapiens; MOLM-14, AML-M5; 72 hours, CellTiter-Glo
Procedure: as §1

[36] = system: MV4-11; assay: Anti-proliferative assay; format: cell-based; details: Homo sapiens; MV4-11, AML; 72 hours, CellTiter-Glo
Procedure: as §1

[37] = system: Namalwa; assay: Anti-proliferative assay; format: cell-based; details: Homo sapiens, Burrkit lymphoma, 72 hours, CellTiter-Glo
Procedure: as §1

[38] = system: Ramos(new); assay: Anti-proliferative assay; format: cell-based; details: Homo sapiens, Burrkit lymphoma, 72 hours, CellTiter-Glo
Procedure: as §1

[39] = system: SKM-1; assay: Anti-proliferative assay; format: cell-based; details: Homo sapiens; SKM-1, AML-M5; 72 hours, CellTiter-Glo
Procedure: as §1

[40] = system: U937; assay: Anti-proliferative assay; format: cell-based; details: Homo sapiens, U-937; U937, AML; 72 hours, CellTiter-Glo
Procedure: as §1

Question: With `Cc1nc(NC(=O)[C@@H](N)C(C)C)sc1-c1cnc(Cl)c(NS(=O)(=O)c2ccccc2)c1` [PI3KD-IN-015] as the compound, how does the “KinomeScan ABL1(Q252H)-nonphosphorylated” value [1] read?
Answer: The value was 100.

Question: And the “KinomeScan ACVRL1” value [2]?
Answer: The value was 100.

Question: What about the “KinomeScan BRSK2” value [3] of the same compound?
Answer: Its value is 100.

Question: And the “KinomeScan CAMKK1” value [4]?
Answer: Its value is 100.

Question: And the “KinomeScan CDC2L5” value [5]?
Answer: Its value is 92.

Question: What about the “KinomeScan CHEK2” value [6] of the same compound?
Answer: Its value is 88.

Question: And the “KinomeScan CIT” value [7]?
Answer: Its value is 100.

Question: And the “KinomeScan EGFR” value [8]?
Answer: Its value is 100.

Question: What about the “KinomeScan EPHA4” value [9] of the same compound?
Answer: The value was 100.

Question: And the “KinomeScan EPHA6” value [10]?
Answer: Its value is 100.

Question: And the “KinomeScan HIPK1” value [11]?
Answer: The value was 96.

Question: And the “KinomeScan HIPK4” value [12]?
Answer: The value was 83.

Question: What about the “KinomeScan IKK-beta” value [13] of the same compound?
Answer: Its value is 100.

Question: What about the “KinomeScan LIMK2” value [14] of the same compound?
Answer: The value was 100.

Question: And the “KinomeScan LOK” value [15]?
Answer: The value was 99.

Question: What about the “KinomeScan MEK1” value [16] of the same compound?
Answer: The value was 100.

Question: And the “KinomeScan MINK” value [17]?
Answer: Its value is 100.

Question: What about the “KinomeScan MRCKA” value [18] of the same compound?
Answer: Its value is 94.

Question: What about the “KinomeScan MST1R” value [19] of the same compound?
Answer: Its value is 86.

Question: What about the “KinomeScan MST2” value [20] of the same compound?
Answer: The value was 87.

Question: And the “KinomeScan p38-alpha” value [21]?
Answer: The value was 100.

Question: And the “KinomeScan PDGFRB” value [22]?
Answer: The value was 98.

Question: What about the “KinomeScan PIK3C2B” value [23] of the same compound?
Answer: The value was 2.2.

Question: What about the “KinomeScan PKN1” value [24] of the same compound?
Answer: Its value is 100.

Question: And the “KinomeScan PKN2” value [25]?
Answer: The value was 100.

Question: And the “KinomeScan PRP4” value [26]?
Answer: The value was 93.

Question: And the “KinomeScan STK35” value [27]?
Answer: The value was 92.

Question: What about the “KinomeScan WNK3” value [28] of the same compound?
Answer: Its value is 100.

Question: What about the GI50 [29] of the same compound?
Answer: Its GI50 is 1100 nM.

Question: And the GI50 [30]?
Answer: The GI50 was 2300 nM.

Question: And the GI50 [31]?
Answer: The GI50 was 860 nM.

Question: What about the GI50 [32] of the same compound?
Answer: The GI50 was over 10000 nM.

Question: What about the GI50 [33] of the same compound?
Answer: Its GI50 is over 10000 nM.

Question: And the GI50 [34]?
Answer: Its GI50 is 940 nM.

Question: What about the GI50 [35] of the same compound?
Answer: The GI50 was 2200 nM.

Question: And the GI50 [36]?
Answer: Its GI50 is 1900 nM.

Question: What about the GI50 [37] of the same compound?
Answer: Its GI50 is 1400 nM.

Question: What about the GI50 [38] of the same compound?
Answer: The GI50 was 2000 nM.

Question: And the GI50 [39]?
Answer: The GI50 was 2600 nM.

Question: What about the GI50 [40] of the same compound?
Answer: Its GI50 is 5100 nM.
